Results taken from patent publication US20160223522A1, “ASSAY FOR DETERMINING RELATIVE REDOX CHANGES IN LIVING CELLS AND ASSOCIATED DEVICES, SYSTEMS, AND METHODS” (University of Utah Research Foundation, priority 2013, published 2016).
Read-outs that look alike come from different tables or passages of the source. Ends that are not written are not given here.

Experiments:
BJ fibroblasts [1] = assay: Reductide plate reader assay in cells (FAM signal after treatment with redox-modifying agents); assay type: cell-based, human; conditions: for reductide FAM signal, % of control at 50 µM: Homo sapiens, Fibroblast, 50 μM compound for 24 hours, then reductide 1.5 μM for four hours, in comparison with vehicle treated cells, read-out: % change from control (reductide FAM signal)
Experimental: BJ fibroblasts were trypsinized and re-plated in a 96-well plate (5,000 cells/well) in normal growth medium and allowed to attach overnight. Media was replaced with normal media supplemented with the chemical redox-modifying agent indicated in the “Results” section for the indicated duration of treatment. Cells were subsequently washed one time with PBS and media was replaced with normal media supplemented with reductide 1 μM.
BJ fibroblasts in 96-well plates were pretreated with various redox-modifying agents followed by washing, incubation with reductide, and assessment of fluorescence by plate reader. […] However, following twenty-four hours of treatment with H2O2, FAM signal was increased for BJ fibroblasts treated with 200-400 μM H2O2 (FIG. 4D) but decreased with higher doses.
Although glutathione is the most abundant intracellular redox buffering system, the protein thioredoxin also acts as an important redox buffer. In order to test whether uptake and reduction of reductide is affected by glutathione status, thioredoxin status, or both, BJ fibroblasts were treated with the specific inhibitor of thioredoxin reductase, aurothioglucose, the inhibitor of glutathione biosynthesis, 1-buthionine sulfoximine (BSO), or both for 24 hours followed by washing, incubation with reductide for four hours, and plate reader assay. […] Thus, uptake and reduction of reductide depends on both glutathione and thioredoxin systems.
In another test to determine whether uptake and reduction of reductide is affected by glutathione status, BJ fibroblasts were treated with 1-buthionine sulfoximine (BSO), an inhibitor of glutathione biosynthesis, or diamide, a thiol oxidizing agent that decreases the cellular GSH to GSSG ratio. […] The following day, cells were treated with the glutathione biosynthesis inhibitor 1-buthionine sulfoximine (BSO) (FIG. 6a) or the thiol oxidizing agent diamide (FIG. 6b) in normal media also containing reductide 1 μM.
The following day, cells were incubated in normal cell media supplemented with 50 μM of a redox-modifying compound from the redox library distributed from Enzo Life Sciences. Each redox compound was used to treat three wells for 24 hours. Afterward, cells were washed with PBS followed by incubation in reductide 1 μM dissolved in normal media for four hours. FAM signal from reduction of reductide's disulfide bond was assayed in a plate reader. Most compounds in the library are classified as antioxidants. […] It should be noted that the screening conditions (50 μM concentration, 24 hour drug incubation) were not optimized for each drug individually. That many antioxidants can act as pro-oxidants if their concentration is sufficiently high is well known. […] When retested at new concentrations, different results were obtained (FIG. 10a-c), showing an increase in signal expected for reduction.
Cells were subsequently washed with PBS and incubated with reductide 1.5 μM dissolved in cell media for four hours. FAM signal was assayed in a plate reader. The redox modifying compounds were obtained as an 84 compound library from Enzo Life Sciences. Percentage change in reductide signal in comparison with vehicle treated cells are shown for a subset of the redox modifying compounds.

IMR90 fibroblasts [2] = system: IMR90 fibroblasts
Experimental: For comparison with monochlorobimane, IMR90 fibroblasts were seeded into a 96 well plate at a density of 50,000 cells per well and attached overnight. Cells were incubated for 60 minutes in media containing NAC or H2O2 at the indicated concentrations. Cells were washed twice in 200 μl of PBS. Monochlorobimane was used to assay reduced GSH content in half the wells using the Glutathione Assay Kit available from Sigma (CS 1020, St. Louis, Mo., USA), following the manufacturer's instructions for use in live cells in a plate reader. At the same time, reductide was dissolved in the same assay buffer used for monochlorobimane treatment and added to half of the wells at a concentration of 1 μM. Fluorimetric readings were performed in a Synergy HT plate reader using excitation and emission wavelengths of 485 nm/528 nm for reductide and 390 nm/478 nm for monochlorobimane. Each cell condition was triplicated, and each experiment was repeated two times.
Reductide (FIG. 8a) is compared with monochlorobimane (FIG. 8b), which is non-fluorescent unless conjugated to low molecular weight thiols, in IMR90 fibroblasts following pretreatment with NAC or H2O2. Cells were seeded into a 96-well plate at a density of 50,000 cells per well and allowed to attach overnight. […]

IMR90 fibroblasts [3] = assay: Flow cytometry of cells incubated with reductide (TAMRA, FAM, DAPI, side-scatter); assay type: cell-based, human
Experimental: IMR90 fibroblasts were seeded onto six 10 cm dishes at a density of 1.8×10^6 cells and allowed to attach overnight. Three dishes were treated with H2O2 600 μM and another three with NAC 4 mM, each in normal media, for one hour. Cells were washed with PBS followed by incubation with reductide 1 μM in normal media for 3, 15, or 30 minutes. Cells were then washed again with PBS followed by trypsinization and collection in normal media without phenol red. Cell concentration was 10^6 per ml. DAPI was added at 1:500 dilution and cells were analyzed by flow cytometry for TAMRA and FAM fluorescence.
IMR90 cells were seeded into 10 cm dishes at a density of 1.8×106 and allowed to attach overnight. The following day, cells were pretreated with NAC 4 mM or H2O2 600 μM for 60 minutes prior to peptide incubation.

H9C2 cells = assay: Secondary test: protection of cells from hydrogen peroxide oxidative stress, viability by Alamar Blue; assay type: cell-based, rat; conditions: 4 μM hit for 24 hours; 24 hours after treatment with 600 μM hydrogen peroxide (FIG. 11b)
Experimental: (§1) For comparison with Alamar Blue™ (Invitrogen, Carlsbad, Calif.), cells in a 96-well plate were washed with PBS followed by four hours of incubation with Alamar Blue diluted 1:10 in normal media according to the manufacturer's instructions. Alamar Blue fluorescence was assayed in a plate reader using excitation and emission wavelengths 540 nm and 590 nm, respectively.
(§2) A secondary test was performed to evaluate the ability of each hit to protect cells from oxidative stress. Cells in 96-well plates were incubated with hits dissolved to 4 μM in cell media for 24 hours (three wells per compound). Cells were then washed once with PBS, and treated with hydrogen peroxide dissolved in cell media for four hours. Cells were then washed once with PBS, and cell viability was assayed with Alamar Blue.
(§3) Control cells were not treated with hydrogen peroxide. Every other category, including DMSO, was treated with 240 μM hydrogen peroxide for four hours prior to viability assessment with Alamar Blue. P-value for 10E4 vs. DMSO is 0.04, p-value for 10E4 vs. control is 0.98, and p-value for DMSO vs. control is 0.02. […] Control cells were not treated with hydrogen peroxide. DMSO pre-treated cells and every other category was treated with 980 μM hydrogen peroxide for four hours prior to the addition of Alamar Blue. […]

BJ fibroblasts [4] = assay: as above; assay type: cell-based, human; conditions: 4 μM hit for 24 hours; 980 μM hydrogen peroxide for four hours; viability 24 hours following treatment (FIG. 11c)
Experimental: as §1, §2, §3

[5] = within 30 minutes of incubation; cited from earlier work
[6] = 50 μM for 24 hours, then reductide 1 μM for four hours
[7] = retested at lower concentrations (FIG. 10a-c)
[8] = treated for 24 hours, washing, reductide for four hours (FIG. 5)
[9] = treated in normal media also containing reductide 1 μM (FIGS. 6a-b)
[10] = pretreatment at varied concentration, washing, incubation with reductide (FIG. 4A, 4B)

Compound: CC1=C(/C=C/C(C)=C/C=C/C(C)=C/C=C/C=C(C)/C=C/C=C(C)/C=C/C2=C(C)CCCC2(C)C)C(C)(C)CCC1 [β-carotene]
- reductide FAM signal, % of control at 50 µM (BJ fibroblasts [1]): 111%

Compound: Cc1cc(Cc2cc(C)cc(C(C)(C)C)c2O)c(O)c(C(C)(C)C)c1 [GERI-BP002A]
- FAM signal relative to vehicle treated cells (BJ fibroblasts [1]; [6]): significant decrease in FAM signal
- FAM signal relative to vehicle treated cells (BJ fibroblasts [1]; [7]): increase in FAM signal consistent with reduction

Compound: CC1=C(C)C(=O)C(C(CCCCCC(=O)O)c2ccccc2)=C(C)C1=O (centres unmarked) [Seratrodast]
- reductide FAM signal, % of control at 50 µM (BJ fibroblasts [1]): 135%

Compound: CCCCS(=N)(=O)CCC(N)C(=O)O (centres unmarked) [BSO, 1-buthionine sulfoximine]
- reductide FAM signal (BJ fibroblasts [1]; [8]): significant increase in signal
- reductide FAM signal (BJ fibroblasts [1]; [9]): significant decrease in reductide FAM signal

Compound: COC1=C(OC)C(=O)C(CCCCCCCCCCO)=C(C)C1=O [Idebenone]
- reductide FAM signal, % of control at 50 µM (BJ fibroblasts [1]): 121%

Compound: OO [H2O2, hydrogen peroxide]
- FAM signal following incubation with reductide (IMR90 fibroblasts [2]; pretreatment 600 μM for 60 minutes (FIG. 8a)): significant decrease in FAM signal
- FAM signal following incubation with reductide (IMR90 fibroblasts [2]; pretreatment with low doses for 60 minutes (FIG. 8a)): mild increases in FAM signal
- FAM signal after pretreatment (BJ fibroblasts [1]; four hours of incubation with H2O2 (FIG. 4C)): decreased in proportion to H2O2 concentration
- FAM signal after pretreatment (BJ fibroblasts [1]; twenty-four hours of treatment, 200-400 μM H2O2 (FIG. 4D)): increased
- FAM signal after pretreatment (BJ fibroblasts [1]; twenty-four hours of treatment, higher doses than 200-400 μM (FIG. 4D)): decreased
- nonviable cells by side-scatter or DAPI signal (IMR90 fibroblasts [3]; reductide 1 μM for 3, 15 or 30 minutes vs. controls, H2O2 600 μM pretreatment for 60 minutes): No increase in nonviable cells

Compound: CN(C)C(=S)SSC(=S)N(C)C [9B11, thiram]
- viability signal vs. DMSO (H9C2 cells): significantly higher than DMSO

Compound: C=C(C)C(=O)C(=CC(=O)O)OC [3E7, penicillic acid]
- viability vs. control (not treated with hydrogen peroxide) (BJ fibroblasts [4]): significantly higher than control

Compound: O=[N+]([O-])c1ccc(Cl)c([N+](=O)[O-])c1 [CDNB, 1-chloro-2,4-dinitrobenzene]
- FAM signal after pretreatment (BJ fibroblasts [1]; [10]): decreased in proportion to the concentration

Compound: COc1ccccc1OCCNCC(O)COc1cccc2[nH]c3ccccc3c12 (centres unmarked) [carvedilol]
- FAM signal relative to vehicle treated cells (BJ fibroblasts [1]; [6]): significant decrease in FAM signal
- FAM signal relative to vehicle treated cells (BJ fibroblasts [1]; [7]): increase in FAM signal consistent with reduction

Compound: CC(=O)O[C@@H]1C[C@@]2(C)[C@H](c3ccoc3)C[C@H]3O[C@]32[C@]2(C)C(=O)C(O)=C3C(C)(C)C(=O)C=C[C@]3(C)[C@@H]12 [20B8, anthothecol]
- viability signal vs. DMSO (H9C2 cells): significantly higher than DMSO

Compound: O=c1c2ccccc2[se]n1-c1ccccc1 [Ebselen]
- reductide FAM signal, % of control at 50 µM (BJ fibroblasts [1]): 77.2%

Compound: CN(C)C(=O)/N=N/C(=O)N(C)C [diamide]
- reductide FAM signal (BJ fibroblasts [1]; [9]): significant decrease in reductide FAM signal

Compound: KLALKLALKALKAALKLA-NH2 [MAP]
- internalized fraction [5]: 60%

Compound: CC(=O)N[C@@H](CS)C(=O)O [NAC, N-acetylcysteine]
- FAM signal after pretreatment (BJ fibroblasts [1]; [10]): increased in proportion to the concentration
- TAMRA signal (reductide uptake) (IMR90 fibroblasts [3]; pretreatment NAC 4 mM for 60 minutes, then reductide 1 μM): strongest

Compound: CCCCCCCCCCCCCCCC(=O)OC/C=C(C)/C=C/C=C(C)/C=C/C1=C(C)CCCC1(C)C [Retinyl palmitate]
- reductide FAM signal, % of control at 50 µM (BJ fibroblasts [1]): 124%

Compound: CCOc1ccc2c(c1)C(C)=CC(C)(C)N2 [Ethoxyquin]
- reductide FAM signal, % of control at 50 µM (BJ fibroblasts [1]): 155%

Compound: CCN1C(=O)C=CC1=O [N-Ethylmaleimide]
- reductide FAM signal, % of control at 50 µM (BJ fibroblasts [1]): -71.7%

Compound: C[Se]CC[C@H](N)C(=O)O [selenomethionine]
- FAM signal relative to vehicle treated cells (BJ fibroblasts [1]; all concentrations tested (FIG. 10a-c)): significant increase in FAM signal consistent with reduction

Compound: OC[C@H]1O[C@H]([S-])[C@H](O)[C@@H](O)[C@@H]1O.[Au+] [aurothioglucose]
- reductide FAM signal (BJ fibroblasts [1]; [8]): small increase in reductide FAM signal that was not statistically significant
